From the supplement of paper PMC10307832

Columns and labels:
Assay in all cases: relative viability (nuclei count vs DMSO), 5 days (fraction); higher = more cells survive
[1] = compound: COc1cc(Nc2ncc3c(n2)-c2ccc(Cl)cc2C(c2c(F)cccc2OC)=NC3)ccc1C(=O)O [Alisertib] + CC(C)C[C@H](NC(=O)[C@H](Cc1ccccc1)NC(=O)c1cnccn1)B(O)O [Bortezomib] (partner 0.002 µM)
How it was run: (§1)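 Lung cancer cell lines, seeded in 1536-well plates, were treated the following day by pin tool with a single drug or with five library-drug doses (not always all listed) in √10 steps on top of a fixed anchor-drug dose. Cells were fixed and nuclei stained in one step after 5 days, and nuclei were counted. Relative viability is the nuclei count for treated wells divided by that for vehicle wells, reported as medians of duplicate plates.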

[2] = compound: COc1cc(Nc2ncc3c(n2)-c2ccc(Cl)cc2C(c2c(F)cccc2OC)=NC3)ccc1C(=O)O [Alisertib] + CS(=O)(=O)CCNCc1ccc(-c2ccc3ncnc(Nc4ccc(OCc5cccc(F)c5)c(Cl)c4)c3c2)o1 [Lapatinib] (partner 2 µM)
How it was run: as §1

[3] = compound: COc1cc(Nc2ncc3c(n2)-c2ccc(Cl)cc2C(c2c(F)cccc2OC)=NC3)ccc1C(=O)O [Alisertib] + NC(=O)Nc1cc(-c2cccc(F)c2)sc1C(=O)N[C@H]1CCCNC1 [AZD7762] (partner 0.2 µM)
How it was run: as §1

[4] = compound: COc1cc(Nc2ncc3c(n2)-c2ccc(Cl)cc2C(c2c(F)cccc2OC)=NC3)ccc1C(=O)O [Alisertib] + Nc1ncn([C@H]2C[C@H](O)[C@@H](CO)O2)c(=O)n1 [Decitabine] (partner 2 µM)
How it was run: as §1

Cell Line	relative viability ([1]; first compound 0.005 µM)	relative viability ([1]; first compound 0.01581 µM)	relative viability ([1]; first compound 0.05 µM)	relative viability ([1]; first compound 0.1581 µM)	relative viability ([1]; first compound 0.5 µM)	relative viability ([2]; first compound 0.005 µM)	relative viability ([2]; first compound 0.01581 µM)	relative viability ([2]; first compound 0.05 µM)	relative viability ([2]; first compound 0.1581 µM)	relative viability ([2]; first compound 0.5 µM)	relative viability ([3]; first compound 0.005 µM)	relative viability ([3]; first compound 0.01581 µM)	relative viability ([3]; first compound 0.05 µM)	relative viability ([3]; first compound 0.1581 µM)	relative viability ([3]; first compound 0.5 µM)	relative viability ([4]; first compound 0.005 µM)	relative viability ([4]; first compound 0.01581 µM)	relative viability ([4]; first compound 0.05 µM)	relative viability ([4]; first compound 0.1581 µM)	relative viability ([4]; first compound 0.5 µM)
HCC-78	0.522	0.272	0.24	0.19	0.175	0.743	0.783	0.428	0.205	0.19	0.544	0.569	0.363	0.23	0.28	0.635	0.507	0.316	0.29	0.298
HCC-366	1.04	0.345	0.0201	0.0154	0.0255	1.02	0.31	0.0171	0.0127	0.0262	0.351	0.396	0.0718	0.0314	0.027	0.29	0.16	0.0371	0.0279	0.0431
HCC-827	1.01	1.06	0.848	0.402	0.401	0.183	0.228	0.191	0.16	0.101	0.18	0.247	0.206	0.123	0.15	0.373	0.303	0.246	0.219	0.24
HOP-62	0.459	0.703	0.82	0.195	0.117	0.838	0.803	0.883	0.223	0.146	0.447	0.412	0.268	0.158	0.0945	0.17	0.217	0.205	0.136	0.2
LC-2-ad	0.907	0.369	0.264	0.144	0.112	0.681	0.465	0.244	0.152	0.118	0.768	0.5	0.224	0.185	0.15	0.736	0.673	0.442	0.263	0.23
LCLC-97TM1	0.51	0.725	0.108	0.0791	0.0549	0.405	0.723	0.623	0.262	0.126	0.192	0.307	0.207	0.103	0.0633	0.235	0.168	0.114	0.115	0.144
LOU-NH91	0.509	0.427	0.388	0.364	0.405	0.773	0.784	0.731	0.484	0.361	0.759	0.721	0.585	0.436	0.393	0.799	0.77	0.651	0.524	0.45
LU99A	1.15	0.872	0.396	0.24	0.182	0.855	0.852	0.651	0.214	0.186	0.502	0.296	0.158	0.131	0.136	0.856	0.85	0.311	0.27	0.186
LXF-289	0.823	0.608	0.323	0.108	0.128	0.743	0.654	0.666	0.168	0.166	0.922	0.637	0.682	0.163	0.138	0.325	0.352	0.183	0.154	0.146
NCI-H23	0.875	0.39	0.272	0.158	0.164	1.01	0.427	0.27	0.176	0.171	0.194	0.139	0.127	0.135	0.0999	0.3	0.184	0.184	0.2	0.178
NCI-H322M	1.15	1.11	1.25	0.471	0.46	0.564	0.616	0.548	0.296	0.315	0.435	0.565	0.47	0.393	0.395	0.714	0.654	0.482	0.425	0.48
NCI-H460	1.07	0.9	0.428	0.0287	0.0157	0.977	0.8	0.29	0.0226	0.0161	0.66	0.667	0.232	0.0611	0.0558	0.441	0.408	0.0826	0.0385	0.0482
NCI-H596	–	0.862	1.83	0.854	0.43	–	1	1.16	0.63	0.433	0.96	1.02	1.15	0.926	0.66	1.07	1.01	1.01	0.708	0.505
NCI-H647	0.598	0.572	0.305	0.133	0.086	0.801	0.62	0.275	0.085	0.058	0.314	0.367	0.103	0.0861	0.0503	0.286	0.256	0.137	0.129	0.0775
NCI-H650	0.568	0.619	0.25	0.265	0.22	0.767	0.558	0.266	0.301	0.208	0.772	0.738	0.37	0.255	0.259	0.295	0.282	0.275	0.185	0.18
NCI-H727	0.796	0.795	0.46	0.329	0.301	0.75	0.68	0.497	0.384	0.314	0.618	0.586	0.591	0.398	0.326	0.843	0.892	0.81	0.617	0.537

Cell Line	relative viability ([1]; first compound 0.005 µM)	relative viability ([1]; first compound 0.01581 µM)	relative viability ([1]; first compound 0.05 µM)	relative viability ([1]; first compound 0.1581 µM)	relative viability ([1]; first compound 0.5 µM)	relative viability ([2]; first compound 0.005 µM)	relative viability ([2]; first compound 0.01581 µM)	relative viability ([2]; first compound 0.05 µM)	relative viability ([2]; first compound 0.1581 µM)	relative viability ([2]; first compound 0.5 µM)	relative viability ([3]; first compound 0.005 µM)	relative viability ([3]; first compound 0.01581 µM)	relative viability ([3]; first compound 0.05 µM)	relative viability ([3]; first compound 0.1581 µM)	relative viability ([3]; first compound 0.5 µM)	relative viability ([4]; first compound 0.005 µM)	relative viability ([4]; first compound 0.01581 µM)	relative viability ([4]; first compound 0.05 µM)	relative viability ([4]; first compound 0.1581 µM)	relative viability ([4]; first compound 0.5 µM)
NCI-H838	0.774	0.655	0.422	0.25	0.158	0.827	0.673	0.391	0.257	0.164	0.943	0.852	0.715	0.669	0.626	0.402	0.334	0.253	0.213	0.198
NCI-H1355	1.18	1.22	0.993	0.368	0.206	0.914	0.837	0.671	0.258	0.184	0.707	0.641	0.364	0.168	0.146	0.347	0.358	0.229	0.177	0.154
NCI-H1437	0.489	0.457	0.191	0.191	0.114	0.729	0.576	0.45	0.218	0.13	1.07	1.09	0.751	0.399	0.201	0.5	0.519	0.439	0.27	0.209
NCI-H1651	0.87	0.928	0.526	0.339	0.194	0.716	0.589	0.434	0.192	0.193	0.456	0.455	0.385	0.199	0.129	0.557	0.433	0.339	0.182	0.161
NCI-H1666	0.694	0.597	0.505	0.317	0.267	0.672	0.451	0.436	0.28	0.236	0.768	0.698	0.636	0.477	0.375	0.785	0.63	0.615	0.537	0.441
NCI-H1734	0.775	0.621	0.383	0.227	0.175	0.905	0.746	0.404	0.264	0.175	0.501	0.366	0.23	0.18	0.149	0.497	0.466	0.324	0.24	0.177
NCI-H1755	0.891	0.886	0.877	0.389	0.318	0.946	0.945	0.833	0.299	0.316	0.478	0.427	0.332	0.328	0.259	0.643	0.673	0.543	0.413	0.348
NCI-H1792	0.935	0.871	0.555	0.21	0.0867	0.847	0.875	0.61	0.215	0.0684	0.571	0.343	0.135	0.0427	0.0721	0.575	0.496	0.213	0.132	0.0838
NCI-H1915	0.763	0.811	0.607	0.327	0.237	0.787	0.821	0.606	0.305	0.253	0.531	0.597	0.277	0.254	0.206	0.257	0.249	0.197	0.198	0.176
NCI-H1975	0.324	0.334	0.215	0.159	0.152	0.78	0.808	0.457	0.234	0.174	0.658	0.618	0.521	0.33	0.192	0.32	0.359	0.142	0.191	0.153
NCI-H1993	0.97	0.982	0.549	0.542	0.497	0.81	0.694	0.537	0.539	0.5	0.85	0.629	0.391	0.324	0.364	0.356	0.561	0.539	0.383	0.356
NCI-H2085	0.923	0.979	0.73	0.327	0.394	0.752	0.692	0.422	0.306	0.323	0.876	0.874	0.882	0.284	0.348	0.565	0.544	0.319	0.396	0.332
NCI-H2087	0.88	0.702	0.186	0.172	0.199	1.16	0.724	0.245	0.188	0.183	1.17	1.29	0.293	0.214	0.185	0.246	0.268	0.149	0.126	0.0842
NCI-H2126	1.03	1.08	0.993	0.526	0.351	0.688	0.754	0.713	0.408	0.312	0.936	0.965	0.883	0.466	0.288	0.528	0.558	0.326	0.268	0.553
NCI-H2347	0.733	1.09	0.911	0.584	0.466	0.815	0.911	0.877	0.738	0.531	0.741	0.671	0.585	0.387	0.37	0.574	0.582	0.523	0.51	0.374
NCI-H2405	0.932	0.929	0.95	0.494	0.298	1.03	0.873	0.932	0.295	0.272	0.589	0.684	0.66	0.24	0.251	0.648	0.748	0.632	0.39	0.277
